pIC50: −log10 of the molar value. Read-outs that look alike come from different tables or passages of the source.
Experiments:
[1] = target: T1, baculovirus-expressed ALK (Homo sapiens, UniProt Q9UM73); experiment: ALK Kinase Assay (ELISA-type, time-resolved fluorescence); type: biochemical
T1 construct: host or cells: baculovirus expression system
In short: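 Substrate coating: phospholipase C-γ, 10 μg/mL in TBS. Kinase step: 30 ng/ml ALK, 15 min, 37° C. Detection and analysis: Eu-N1 PT66 antibody, with IC50 fitted as a sigmoidal variable-slope dose-response curve.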

[2] = target: T2, c-Met (cytoplasmic domain) (Homo sapiens, UniProt P08581); experiment: c-Met Kinase Assay (same methods as for ALK, with modifications); type: biochemical
T2 construct: 10 ng/mL c-Met (cytoplasmic domain, Invitrogen Corporation #PV3143); purchased Invitrogen Corporation PV3143
T2 sequence (P08581 956-1390 limits assumed): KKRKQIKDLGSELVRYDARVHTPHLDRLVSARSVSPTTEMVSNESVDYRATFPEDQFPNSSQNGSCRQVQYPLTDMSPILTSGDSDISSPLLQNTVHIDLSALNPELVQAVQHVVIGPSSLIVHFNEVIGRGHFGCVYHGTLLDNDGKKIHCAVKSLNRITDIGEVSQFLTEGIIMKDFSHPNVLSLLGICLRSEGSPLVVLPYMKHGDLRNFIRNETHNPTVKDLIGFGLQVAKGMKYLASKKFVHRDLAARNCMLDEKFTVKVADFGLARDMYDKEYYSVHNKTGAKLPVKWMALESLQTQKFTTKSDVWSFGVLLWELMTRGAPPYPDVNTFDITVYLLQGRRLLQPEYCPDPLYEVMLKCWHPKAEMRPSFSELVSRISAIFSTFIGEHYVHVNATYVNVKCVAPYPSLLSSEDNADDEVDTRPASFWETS
In short: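 Wells were coated with 10 μg/mL phospholipase C-γ substrate in TBS, and reactions were started with 10 ng/mL c-Met cytoplasmic domain and run at 37° C for 15 minutes. Phosphorylated product was detected with Eu-N1-labeled PT66 antibody. IC50 values came from sigmoidal variable-slope fits of percent inhibition versus log compound concentration.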

[3] = ALK kinase inhibition, 1 μM ATP, read-out: ALK Activity
[4] = c-Met kinase inhibition, 1 μM ATP, read-out: cMet Activity
[5] = 1 μM ATP (Km level), 30 ng/ml ALK, 37° C., 15 minutes, read-out: ALK Activity (ALK kinase inhibition, IC50 class)
[6] = 1 μM ATP (Km level), 10 ng/mL c-Met, read-out: cMet Activity (c-Met kinase inhibition, IC50 class)
[7] = ALK kinase inhibition, 1 μM ATP (Km level), read-out: ALK Activity
[8] = c-Met kinase inhibition, 1 μM ATP (Km level), read-out: cMet Activity
[9] = 1 μM ATP (Km level), read-out: ALK Activity (ALK Kinase Inhibition, IC50)
[10] = 1 μM ATP (Km level), read-out: cMet Activity (c-Met Kinase Inhibition, IC50)

T1 sequence (Q9UM73 19-1620): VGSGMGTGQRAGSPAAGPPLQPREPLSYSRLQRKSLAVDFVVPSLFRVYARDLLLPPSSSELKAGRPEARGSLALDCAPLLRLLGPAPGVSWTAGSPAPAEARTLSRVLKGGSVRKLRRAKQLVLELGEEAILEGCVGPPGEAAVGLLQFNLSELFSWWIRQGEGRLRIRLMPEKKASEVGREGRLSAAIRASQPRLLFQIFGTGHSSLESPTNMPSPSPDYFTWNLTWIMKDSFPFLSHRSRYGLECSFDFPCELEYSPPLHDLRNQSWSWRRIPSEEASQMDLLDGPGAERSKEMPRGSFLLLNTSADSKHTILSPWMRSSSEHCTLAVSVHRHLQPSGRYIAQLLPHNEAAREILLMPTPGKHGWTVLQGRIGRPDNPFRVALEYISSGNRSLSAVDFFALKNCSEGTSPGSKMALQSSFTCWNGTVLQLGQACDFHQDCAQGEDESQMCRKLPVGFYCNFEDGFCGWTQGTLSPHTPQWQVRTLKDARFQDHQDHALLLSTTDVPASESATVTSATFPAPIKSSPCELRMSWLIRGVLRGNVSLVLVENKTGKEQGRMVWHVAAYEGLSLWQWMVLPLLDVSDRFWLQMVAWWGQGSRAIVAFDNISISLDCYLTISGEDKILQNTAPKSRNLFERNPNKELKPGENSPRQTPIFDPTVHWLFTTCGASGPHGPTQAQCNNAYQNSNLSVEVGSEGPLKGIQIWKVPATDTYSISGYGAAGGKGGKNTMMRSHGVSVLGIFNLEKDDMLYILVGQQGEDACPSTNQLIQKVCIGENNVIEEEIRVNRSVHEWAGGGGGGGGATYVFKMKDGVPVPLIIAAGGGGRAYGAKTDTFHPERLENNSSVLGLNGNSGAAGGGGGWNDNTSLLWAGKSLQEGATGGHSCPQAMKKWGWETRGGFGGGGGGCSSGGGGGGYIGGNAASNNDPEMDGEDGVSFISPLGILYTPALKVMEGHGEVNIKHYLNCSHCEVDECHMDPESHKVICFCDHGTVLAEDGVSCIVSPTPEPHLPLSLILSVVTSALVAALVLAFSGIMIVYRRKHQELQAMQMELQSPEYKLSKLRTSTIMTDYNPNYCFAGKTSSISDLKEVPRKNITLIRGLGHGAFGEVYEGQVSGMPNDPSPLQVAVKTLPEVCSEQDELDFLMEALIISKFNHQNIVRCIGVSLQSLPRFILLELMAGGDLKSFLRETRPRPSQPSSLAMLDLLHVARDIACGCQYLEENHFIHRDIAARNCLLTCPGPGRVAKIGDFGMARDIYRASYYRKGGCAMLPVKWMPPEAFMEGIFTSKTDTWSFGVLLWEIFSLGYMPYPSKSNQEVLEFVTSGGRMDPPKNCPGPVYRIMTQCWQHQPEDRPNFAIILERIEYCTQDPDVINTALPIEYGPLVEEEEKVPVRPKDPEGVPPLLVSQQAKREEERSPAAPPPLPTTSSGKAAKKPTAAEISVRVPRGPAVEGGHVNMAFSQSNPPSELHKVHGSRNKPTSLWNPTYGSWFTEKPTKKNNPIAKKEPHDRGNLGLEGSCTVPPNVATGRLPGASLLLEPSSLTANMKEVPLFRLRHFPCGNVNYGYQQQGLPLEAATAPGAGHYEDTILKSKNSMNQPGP

## COc1cc(N2CCOCC2)ccc1Nc1nc(Nc2ccc3c(c2)N(CC(C)C)C(=O)CCC3(C)C)ncc1Cl [Example 1594, 8-[5-Chloro-4-(2-methoxy-4-morpholin-4-yl-phenylamino)-pyrimidin-2-ylamino]-1-isobutyl-5,5-dimethyl-1,3,4,5-tetrahydro-benzo[b]azepin-2-one]
[1]; [3]
  pIC50: > 7.00
[2]; [4]
  pIC50: < 5.00

## COc1cc2c(cc1Nc1ncc(Cl)c(N[C@H]3[C@@H](C(N)=O)[C@@H]4C=C[C@H]3C4)n1)CCN(CC(=O)N(C)C)CC2 [Example 1123, (1S,2S,3R,4R)-3-[5-Chloro-2-(3-dimethylcarbamoylmethyl-8-methoxy-2,3,4,5-tetrahydro-1H-benzo[d]azepin-7-ylamino)-pyrimidin-4-ylamino]-bicyclo[2.2.1]hept-5-ene-2-carboxylic acid amide]
[1]; [5]
  pIC50: > 7.00
[2]; [6]
  pIC50: < 5.00

## C#CCN1CCN(C)c2cc(Nc3ncc(Cl)c(N[C@@H]4CCCC[C@H]4NS(C)(=O)=O)n3)ccc2C1 [Example 480, N-{(1R,2R)-2-[5-Chloro-2-(1-methyl-4-prop-2-ynyl-2,3,4,5-tetrahydro-1H-benzo[e][1,4]diazepin-8-ylamino)-pyrimidin-4-ylamino]-cyclohexyl}-methanesulfonamide]
[1]; [7]
  pIC50: > 7.00
[2]; [8]
  pIC50: 5.00 to 6.00

## C#CCN1CC2CCC(C1)c1cc(Nc3ncc(Cl)c(Nc4ccccc4S(=O)(=O)NC)n3)ccc12 (stereo not drawn) [Example 287, 2-[5-Chloro-2-(10-prop-2-ynyl-10-aza-tricyclo[6.3.2.0*2,7*]trideca-2,4,6-trien-4-ylamino)-pyrimidin-4-ylamino]-N-methyl-benzenesulfonamide]
[1]; [7]
  pIC50: > 7.00
[2]; [8]
  pIC50: 6.00 to 7.00

## CS(=O)(=O)Nc1ccccc1Nc1nc(Nc2ccc3c(c2)CNCCS3)ncc1Cl [Example 518]
[1]; [9]
  pIC50: > 7.00
[2]; [10]
  pIC50: 5.00 to 6.00

## NC(=O)C1C2C=CC(C2)C1Nc1nc(Nc2ccc3c(c2)CNC(=O)NC3)ncc1Cl (stereo not drawn) [Example 228, (2-exo,3-exo)-3-[5-Chloro-2-(3-oxo-2,3,4,5-tetrahydro-1H-benzo[e][1,3]diazepin-7-ylamino)-pyrimidin-4-ylamino]-bicyclo[2.2.1]hept-5-ene-2-carboxylic acid amide]
[1]; [7]
  pIC50: > 7.00
[2]; [8]
  pIC50: 6.00 to 7.00

## COCCN1CCc2ccc(Nc3ncc(Cl)c(Oc4c(F)cccc4OC4CCOC4)n3)cc2CC1 (stereo not drawn) [Example 1308, {5-Chloro-4-[2-fluoro-6-(tetrahydro-furan-3-yloxy)-phenoxy]-pyrimidin-2-yl}-[3-(2-methoxy-ethyl)-2,3,4,5-tetrahydro-1H-3-benzazepin-7-yl]-amine]
[1]; [5]
  pIC50: 6.00 to 7.00
[2]; [6]
  pIC50: 5.00 to 6.00

## COC(=O)c1sc(-c2ccccc2)c(C)c1Nc1nc(Nc2ccc3c(c2)CCOC(=O)N3C)ncc1Cl [Example 1762, 3-[5-Chloro-2-(5-methyl-6-oxo-5,6,8,9-tetrahydro-7-oxa-5-aza-benzocyclohepten-2-ylamino)-pyrimidin-4-ylamino]-4-methyl-5-phenyl-thiophene-2-carboxylic acid methyl ester]
[1]; [3]
  pIC50: < 5.00
[2]; [4]
  pIC50: < 5.00

## CCN1C(=O)CCCc2cc(Nc3ncc(Cl)c(Nc4c(F)cccc4C(=O)NC)n3)c(OC)cc21 [Example 138, 2-[5-Chloro-2-(1-ethyl-8-methoxy-2-oxo-2,3,4,5-tetrahydro-1H-benzo[b]azepin-7-ylamino)-pyrimidin-4-ylamino]-3-fluoro-N-methyl-benzamide]
[1]; [7]
  pIC50: > 7.00
[2]; [8]
  pIC50: 5.00 to 6.00

## 2-[2-(8-Amino-4H,6H-3,5,10b-triaza-benzo[e]azulen-5-yl)-5-chloro-pyrimidin-4-ylamino]-3-fluoro-N-methyl-benzamide [Example 1467]
[1]; [3]
  pIC50: 5.00 to 6.00
[2]; [4]
  pIC50: 5.00 to 6.00

## CCN1CCc2ccc(OC)c(Nc3ncc(Cl)c(Nc4ccccc4S(=O)(=O)NC)n3)c2CC1 [Example 49, 2-[5-Chloro-2-(3-ethyl-7-methoxy-2,3,4,5-tetrahydro-1H-benzo[d]azepin-6-ylamino)-pyrimidin-4-ylamino]-N-methyl-benzenesulfonamide]
[1]; [7]
  pIC50: > 7.00
[2]; [8]
  pIC50: < 5.00

## COc1ccc2c(c1Nc1ncc(Cl)c(Nc3ccccc3S(=O)(=O)N(C)C)n1)CCC(NCC(F)F)CC2 (stereo not drawn) [Example 1077, 2-{5-Chloro-2-[7-(2,2-difluoro-ethylamino)-2-methoxy-6,7,8,9-tetrahydro-5H-benzocyclohepten-1-ylamino]-pyrimidin-4-ylamino}-N,N-dimethyl-benzenesulfonamide]
[1]; [5]
  pIC50: 6.00 to 7.00
[2]; [6]
  pIC50: < 5.00

## CCN1CCNC(=O)c2ccc(Nc3ncc(Cl)c(Nc4ccccc4C(=O)NC)n3)cc21 [Example 1452, 2-[5-Chloro-2-(1-ethyl-5-oxo-2,3,4,5-tetrahydro-1H-benzo[e][1,4]diazepin-8-ylamino)-pyrimidin-4-ylamino]-N-methyl-benzamide]
[1]; [3]
  pIC50: > 7.00
[2]; [4]
  pIC50: > 7.00

## COCCN1CCc2ccc(Nc3ncc(Cl)c(Nc4c(OC)cccc4C(=O)NCCC#N)n3)cc2CC1 [Example 1060, 2-{5-Chloro-2-[3-(2-methoxy-ethyl)-2,3,4,5-tetrahydro-1H-benzo[d]azepin-7-ylamino]-pyrimidin-4-ylamino}-N-(2-cyano-ethyl)-3-methoxy-benzamide]
[1]; [5]
  pIC50: 5.00 to 6.00
[2]; [6]
  pIC50: 5.00 to 6.00

## COc1cc2c(cc1Nc1ncc(Cl)c(N[C@H]3[C@@H](C(N)=O)[C@@H]4C=C[C@H]3C4)n1)C(C)(C)CCC(=O)N2C [Example 1313, (1S,2S,3R,4R)-3-[5-Chloro-2-(8-methoxy-1,5,5-trimethyl-2-oxo-2,3,4,5-tetrahydro-1H-benzo[b]azepin-7-ylamino)-pyrimidin-4-ylamino]-bicyclo[2.2.1]hept-5-ene-2-carboxylic acid amide]
[1]; [5]
  pIC50: > 7.00
[2]; [6]
  pIC50: < 5.00

## COc1cc2c(cc1Nc1ncc(Cl)c(Nc3ccccc3S(=O)(=O)N(C)C)n1)CCN(C(=O)C(C)(C)N)CC2 [Example 1207, 2-{2-[3-(2-Amino-2-methyl-propionyl)-8-methoxy-2,3,4,5-tetrahydro-1H-benzo[d]azepin-7-ylamino]-5-chloro-pyrimidin-4-ylamino}-N,N-dimethyl-benzenesulfonamide]
[1]; [5]
  pIC50: > 7.00
[2]; [6]
  pIC50: 5.00 to 6.00

## COc1cc2c(cc1Nc1ncc(Cl)c(Nc3ccccc3S(=O)(=O)C(C)C)n1)CCN(CC(F)F)CC2 [Example 827, 5-Chloro-N*2*-[3-(2,2-difluoro-ethyl)-8-methoxy-2,3,4,5-tetrahydro-1H-benzo[d]azepin-7-yl]-N*4*-[2-(propane-2-sulfonyl)-phenyl]-pyrimidine-2,4-diamine]
[1]; [9]
  pIC50: > 7.00
[2]; [10]
  pIC50: < 5.00

## C#CCNC(=O)c1cccc(F)c1Nc1nc(Nc2ccc3c(c2)OCC(O)(CO)CN3CC)ncc1Cl (stereo not drawn) [Example 1735, 2-[5-Chloro-2-(9-ethyl-7-hydroxy-7-hydroxymethyl-6,7,8,9-tetrahydro-5-oxa-9-aza-benzocyclohepten-3-ylamino)-pyrimidin-4-ylamino]-3-fluoro-N-prop-2-ynyl-benzamide]
[1]; [3]
  pIC50: 6.00 to 7.00
[2]; [4]
  pIC50: 6.00 to 7.00

## COc1c(Nc2ncc(Cl)c(Nc3ccccc3S(=O)(=O)N3CCC(O)C3)n2)ccc2c1CCC(N1CCOCC1)CC2 (mixture of isomers) [Example 906, 1-{2-[5-Chloro-2-(1-methoxy-7-morpholin-4-yl-6,7,8,9-tetrahydro-5H-benzocyclohepten-2-ylamino)-pyrimidin-4-ylamino]-benzenesulfonyl}-pyrrolidin-3-ol]
[1]; [9]
  pIC50: > 7.00
[2]; [10]
  pIC50: 5.00 to 6.00

## C#CCN1CCN(C)c2cc(Nc3ncc(Cl)c(Nc4ccccc4C(=O)N(C)CC#C)n3)ccc2C1 [Example 488, 2-[5-Chloro-2-(1-methyl-4-prop-2-ynyl-2,3,4,5-tetrahydro-1H-benzo[e][1,4]diazepin-8-ylamino)-pyrimidin-4-ylamino]-N-methyl-N-prop-2-ynyl-benzamide]
[1]; [7]
  pIC50: > 7.00
[2]; [8]
  pIC50: > 7.00

## CNC(=O)c1ccccc1Nc1nc(Nc2ccc3c(c2)CCCNC3=O)ncc1Cl [Example 11, 2-[5-Chloro-2-(1-oxo-2,3,4,5-tetrahydro-1H-benzo[c]azepin-7-ylamino)-pyrimidin-4-ylamino]-N-methyl-benzamide]
[1]; [7]
  pIC50: > 7.00
[2]; [8]
  pIC50: > 7.00

## CNC(=O)c1ccccc1Nc1nc(Nc2ccc3c(c2OC)CCC(N2CCOCC2)CC3)ncc1Cl (racemic) [Example 915, 2-[5-Chloro-2-(1-methoxy-7-morpholin-4-yl-6,7,8,9-tetrahydro-5H-benzocyclohepten-2-ylamino)-pyrimidin-4-ylamino]-N-methyl-benzamide]
[1]; [9]
  pIC50: > 7.00
[2]; [10]
  pIC50: 5.00 to 6.00

## CNC(=O)c1cccc(F)c1Nc1nc(Nc2ccc3c(c2)N(C(=O)CN(C)C)CCCC3(C)C)ncc1Cl [Example 1630, 2-{5-Chloro-2-[1-(2-dimethylamino-acetyl)-5,5-dimethyl-2,3,4,5-tetrahydro-1H-benzo[b]azepin-8-ylamino]-pyrimidin-4-ylamino}-3-fluoro-N-methyl-benzamide]
[1]; [3]
  pIC50: 6.00 to 7.00
[2]; [4]
  pIC50: 6.00 to 7.00

## COCCN1CCc2ccc(Nc3ncc(Cl)c(Nc4ccc5[nH]c(C(F)(F)F)nc5c4)n3)cc2CC1 [Example 1015, 5-Chloro-N*2*-[3-(2-methoxy-ethyl)-2,3,4,5-tetrahydro-1H-benzo[d]azepin-7-yl]-N*4*-(2-trifluoromethyl-1H-benzoimidazol-5-yl)-pyrimidine-2,4-diamine]
[1]; [5]
  pIC50: 6.00 to 7.00
[2]; [6]
  pIC50: 5.00 to 6.00
